Here are results for four compounds from US12325696B2, “Indazole derivative, preparation method therefor, and pharmaceutical application thereof” (JIANGSU HENGRUI MEDICINE CO., LTD., priority 2019, dated 2025).

In one assay the test system is MCF7 cell. The assay is described as follows: Inhibition of proliferation of MCF7 cell (CellTiter-Glo, 144 hours). The assay is classed as cell-based. Particulars: Homo sapiens; for IC50: MCF7, CellTiter-Glo, read-out: IC50 of the inhibitory effect on the proliferation of MCF7 cell; for Emax: MCF7 cell proliferation, read-out: Maximum inhibition. As to the method: MCF7 cells (ATCC, HTB-22) were cultured in MEM (GE Healthcare, SH30024.01) complete medium containing 10% fetal bovine serum. On the first day of the experiment, MCF7 cells were seeded in a 96-well plate with the complete medium at a density of 3,000 cells/well (100 μl of cell suspension per well), and the plate was incubated in a cell incubator at 37° C. and 5% CO2 overnight. On the second day, the medium in each well was replaced with 135 μl of MEM incomplete medium containing 2% fetal bovine serum. 15 μl of test compound solution of different concentrations formulated with the incomplete medium was added to each well, wherein the final concentrations of the compound were nine concentration points obtained by a 4-fold gradient dilution starting from 100 nM. A blank control containing 0.5% DMSO was set. The plate was incubated in a cell incubator at 37° C. and 5% CO2 for 144 hours. On the eighth day, the 96-well plate was taken out, and 150 μl of CellTiter-Glo® Luminescent Cell Viability Assay (Promega, G7573) was added to each well. The plate was left to stand at room temperature for 10 minutes, and the luminescence signal values were measured using a multi-label microplate reader (PerkinElmer, VICTOR 3). The IC50 values of the inhibitory activity of the compounds were calculated based on the concentrations and luminescence signal values of the compounds using Graphpad Prism software.
A graph of the chemiluminescence signal values versus the logarithmic concentrations of the compound was made using Graghpad Prism to obtain the IC50 values of the compound.
A general note: Cellular ATP, detected with luciferase, serves as a proxy for viable cell number.

Assay [1] relates to estrogen receptor reporter gene. The assay is described as follows: Inhibition of estrogen receptor reporter gene activity (ERE-luc luciferase) in MCF7/ERE-luc cells. The assay is classed as cell-based. Particulars: Homo sapiens, 0.1 nM β-estradiol, 20 hours, read-out: IC50 of inhibitory activity on the activity of the estrogen receptor reporter gene. As to the method:
MCF7 cells MCF7/ERE-luc (ATCC, HTB-22) expressing the luciferase reporter gene ERE-luc (synthesized by GENEWIZ, Inc.) controlled by the estrogen receptor response element were cultured in MEM (GE Healthcare, SH30024.01) medium containing 10% fetal bovine serum and 500 µg/ml G418. On the first day of the experiment, MCF7/ERE-luc cells were seeded in a 96-well plate with incomplete MEM medium containing 10% fetal bovine serum treated with activated charcoal (BioSun, BS-0004-500) at a density of 30,000 cells/well (100 μl of cell suspension per well), and the plate was incubated in a cell incubator at 37° C. and 5% CO2 overnight. On the second day, 10 μl of β-estradiol (SIGMA, E2758-250MG) solution formulated with the above incomplete medium or test compound solution of different concentrations formulated with the above incomplete medium was added to each well, wherein the final concentration of β-estradiol was 0.1 nM, and the final concentrations of the compound were nine concentration points obtained by a 10-fold gradient dilution starting from 10 μM, a blank control containing 0.5% DMSO was set, and the plate was incubated in a cell incubator at 37° C. and 5% CO2 for 20 hours. On the third day, the 96-well plate was taken out, and 100 μl of ONE-Glo™ Luciferase Assay system (Promega, E6110) was added to each well to determine the activity of luciferase. The plate was left to stand at room temperature for 3 minutes until the cells were fully lysed, and the luminescence signal values were measured using a multi-label microplate reader (PerkinElmer, VICTOR 3). The IC50 values of the inhibitory activity of the compounds were calculated using Graphpad Prism software based on the concentrations and luminescence signal values of the compounds.
The inhibitory effect of the compounds of the present disclosure on the activity of the estrogen receptor reporter gene was determined by the above test. A graph of the chemiluminescence signal values versus the logarithmic concentrations of the compound was made using Graghpad Prism.

As to `CNC(=O)c1ccc(/C(CC(F)(F)F)=C(\c2ccc(O[C@@H]3CCCN(C/C=C/C(=O)N(C)C)C3)nc2)c2ccc3[nH]nc(F)c3c2)cc1` [Example 21, 4-((Z)-1-(6-(((R)-1-((E)-4-(Dimethylamino)-4-oxobut-2-en-1-yl)piperidin-3-yl)oxy)pyridin-3-yl)-4,4,4-trifluoro-1-(3-fluoro-1H-indazol-5-yl)but-1-en-2-yl)-N-methylbenzamide], in the assay with MCF7 cell, the IC50 worked out at 45 nM and the Emax was determined as 90%.

Regarding `CN(C)C(=O)/C=C/CN1CCC[C@H](Oc2ccc(/C(=C(/CC(F)(F)F)c3ccccc3)c3ccc4[nH]nc(F)c4c3)cn2)C1` [Example 27, (E)-N,N-Dimethyl-4-((S)-3-((5-((Z)-4,4,4-trifluoro-1-(3-fluoro-1H-indazol-5-yl)-2-phenylbut-1-en-1-yl)pyridin-2-yl)oxy)piperidin-1-yl)but-2-enamide], in the assay with MCF7 cell, the IC50 is 0.3 nM and the Emax stood at 86%. Also, the IC50 in assay [1] was 7 nM.

Consider `C=CC(=O)N1CCC(Oc2ccc(/C(=C(/CC(F)(F)F)c3ccccc3)c3ccc4[nH]nc(F)c4c3)cn2)CC1` [Example 28, (Z)-1-(4-((5-(4,4,4-Trifluoro-1-(3-fluoro-1H-indazol-5-yl)-2-phenylbut-1-en-1-yl)pyridin-2-yl)oxy)piperidin-1-yl)prop-2-en-1-one], for which the IC50 came to 0.1 nM in the assay on MCF7 cell and 4 nM in assay [1]. Also, the Emax with MCF7 cell was 90%.

For `CN(C)C(=O)/C=C/CN1CC[C@H](Oc2ccc(/C(=C(/CC(F)(F)F)c3ccccc3)c3ccc4[nH]nc(F)c4c3)cn2)C1` [Example 30, (E)-N,N-Dimethyl-4-((S)-3-((5-((Z)-4,4,4-trifluoro-1-(3-fluoro-1H-indazol-5-yl)-2-phenylbut-1-en-1-yl)pyridin-2-yl)oxy)pyrrolidin-1-yl)but-2-enamide], in the assay with MCF7 cell, the IC50 was determined as 0.2 nM and the Emax came to 93%. The IC50 in assay [1] worked out at 3 nM.
